What all share (format): functional
Test [1] concerns Mycobacterium tuberculosis. In words: Antimycobacterial activity against dormant state of Mycobacterium bovis BCG by two fold dilution method. The settings on record: variant bovis BCG.
In test [2] the test system is Mycobacterium tuberculosis. In words: Antimycobacterial activity against dormant state of Mycobacterium bovis BCG assessed as growth inhibition at 10 ug/ml after 12 days by nitrate reductase assay relative to control. To be noted: variant bovis BCG, 288 h, read-out: GI.
Test [3] deals with Mycobacterium tuberculosis. In words: Antimycobacterial activity against dormant state of Mycobacterium bovis BCG assessed as growth inhibition at 30 ug/ml after 12 days by nitrate reductase assay relative to control. The settings on record: variant bovis BCG, 288 h, read-out: GI.
The test system of test [4] is Mycobacterium tuberculosis. In words: Antimycobacterial activity against dormant state of Mycobacterium bovis BCG assessed as growth inhibition at 3 ug/ml after 12 days by nitrate reductase assay relative to control. The settings on record: variant bovis BCG, 288 h, read-out: GI.

The values that follow come from ChEMBL document CHEMBL4002627, “Quinolidene based monocarbonyl curcumin analogues as promising antimycobacterial agents: Synthesis and molecular docking study” (Bioorg Med Chem Lett, 2017).

Converted amounts (≈) assume the structure as drawn.

`CO[C@H]1/C=C/O[C@@]2(C)Oc3c(C)c(O)c4c(O)c(c(/C=N/N5CCN(C)CC5)c(O)c4c3C2=O)NC(=O)/C(C)=C\C=C\[C@H](C)[C@H](O)[C@@H](C)[C@@H](O)[C@@H](C)[C@H](OC(C)=O)[C@@H]1C` [RIFAMPIN]: in test [1], the MIC50 (as a rule, an inhibitory concentration at the 50% level, which refers to growth in some studies and to a panel of isolates in others) was determined as 0.0043 µg/mL (≈ 0.00523 µM); the MIC90 (usually an inhibitory concentration at the 90% level, which refers to growth in some studies and to a panel of isolates in others) came to 0.0173 µg/mL (≈ 0.021 µM).
Turning to `O=C1/C(=C/c2cc3ccccc3nc2Cl)CNC/C1=C\c1cc2ccccc2nc1Cl`, in test [2], the inhibition of growth at 10 µg/mL was found to be 50.6%. Besides, the inhibition of growth at 30 µg/mL in test [3] turned out to be 79.7%. The inhibition of growth at 3 µg/mL in test [4] turned out to be 38.3%. Further, in test [1], the MIC50 is 9.6 µg/mL (≈ 21.5 µM) and the MIC90 is greater than 30 µg/mL.
The matching figures for `O=C1/C(=C/c2cc3cc(F)ccc3nc2Cl)CNC/C1=C\c1cc2cc(F)ccc2nc1Cl`: 93.4%, 96.1%, 61.9%, 2.1 µg/mL (≈ 4.35 µM) and 9.2 µg/mL (≈ 19.1 µM).
For `COc1ccc2cc(/C=C3\CN(C)C/C(=C\c4cc5ccc(OC)cc5nc4Cl)C3=O)c(Cl)nc2c1`, in test [2], the inhibition of growth at 10 µg/mL came to 95.6%. Also, the inhibition of growth at 30 µg/mL in test [3] turned out to be 92.4%. The inhibition of growth at 3 µg/mL in test [4] stood at 22.3%. For the same compound, in test [1], the MIC50 worked out at 5.8 µg/mL (≈ 11.1 µM) and the MIC90 was 9.4 µg/mL (≈ 18.1 µM).
Take `COc1ccc2cc(/C=C3\CNC/C(=C\c4cc5ccc(OC)cc5nc4Cl)C3=O)c(Cl)nc2c1`: the inhibition of growth at 10 µg/mL in test [2] was 98.3%. For the same compound, the inhibition of growth at 30 µg/mL in test [3] came to 96.8%. For the same compound, in test [4], the inhibition of growth at 3 µg/mL came out at 94.6%. In test [1], this compound came in with an MIC50 of 1.4 µg/mL (≈ 2.76 µM) and an MIC90 of 2.7 µg/mL (≈ 5.33 µM).
The matching figures for `COc1ccc2nc(Cl)c(/C=C3\CN(C)C/C(=C\c4cc5cc(OC)ccc5nc4Cl)C3=O)cc2c1`: 13.3%, 31.9%, 22.9%, greater than 30 µg/mL and greater than 30 µg/mL.
In the case of `Cc1cccc2cc(/C=C3\CNC/C(=C\c4cc5cccc(C)c5nc4Cl)C3=O)c(Cl)nc12`, the inhibition of growth at 10 µg/mL in test [2] is 66.7%. Moreover, the inhibition of growth at 30 µg/mL in test [3] came out at 77.1%. Moreover, the inhibition of growth at 3 µg/mL in test [4] worked out at 52.1%. Further, in test [1], the MIC50 is 2.5 µg/mL (≈ 5.27 µM) and the MIC90 is greater than 30 µg/mL.
Take `Cc1cccc2cc(/C=C3\CN(C)C/C(=C\c4cc5cccc(C)c5nc4Cl)C3=O)c(Cl)nc12`: the inhibition of growth at 10 µg/mL in test [2] worked out at 35.9%. In addition, the inhibition of growth at 30 µg/mL in test [3] worked out at 62.4%. The inhibition of growth at 3 µg/mL in test [4] was 19.1%. In addition, in test [1], the MIC50 is 20.8 µg/mL (≈ 42.6 µM) and the MIC90 is greater than 30 µg/mL.
Turning to `Cc1ccc2nc(Cl)c(/C=C3\CN(C)C/C(=C\c4cc5cc(C)ccc5nc4Cl)C3=O)cc2c1`, in test [2], the inhibition of growth at 10 µg/mL was 1%. Moreover, in test [3], the inhibition of growth at 30 µg/mL came out at 20.2%. Moreover, the inhibition of growth at 3 µg/mL in test [4] was -5.7%. Further, in test [1], the MIC50 was greater than 30 µg/mL and the MIC90 was greater than 30 µg/mL.
With `Cc1ccc2cc(/C=C3\CNC/C(=C\c4cc5ccc(C)cc5nc4Cl)C3=O)c(Cl)nc2c1`, the inhibition of growth at 10 µg/mL in test [2] was 43.4%. For the same compound, the inhibition of growth at 30 µg/mL in test [3] was found to be 89.8%. Moreover, in test [4], the inhibition of growth at 3 µg/mL is 33.8%. Besides, in test [1], the MIC50 amounted to 12.9 µg/mL (≈ 27.2 µM) and the MIC90 was greater than 30 µg/mL.
In the case of `CN1C/C(=C\c2cc3cc(F)ccc3nc2Cl)C(=O)/C(=C/c2cc3cc(F)ccc3nc2Cl)C1`, the inhibition of growth at 10 µg/mL in test [2] stood at 1%. Moreover, the inhibition of growth at 30 µg/mL in test [3] is 63.8%. Also, the inhibition of growth at 3 µg/mL in test [4] was found to be 17.6%. Also, in test [1], the MIC50 was 25.6 µg/mL (≈ 51.6 µM) and the MIC90 is greater than 30 µg/mL.
Consider `CN1C/C(=C\c2cc3cc(Cl)ccc3nc2Cl)C(=O)/C(=C/c2cc3cc(Cl)ccc3nc2Cl)C1`, for which the inhibition of growth at 10 µg/mL in test [2] stood at 82.1%. The inhibition of growth at 30 µg/mL in test [3] was found to be 96.2%. In addition, the inhibition of growth at 3 µg/mL in test [4] worked out at 49%. In test [1], this compound gave an MIC50 of 3.3 µg/mL (≈ 6.24 µM) and an MIC90 of 21.5 µg/mL (≈ 40.6 µM).
Take `CN1C/C(=C\c2cc3ccccc3nc2Cl)C(=O)/C(=C/c2cc3ccccc3nc2Cl)C1`: in test [2], the inhibition of growth at 10 µg/mL was 61.7%. The inhibition of growth at 30 µg/mL in test [3] worked out at 97.5%. Moreover, the inhibition of growth at 3 µg/mL in test [4] stood at 31.7%. In test [1], this compound had an MIC50 of 6 µg/mL (≈ 13 µM) and an MIC90 of 7.3 µg/mL (≈ 15.9 µM).
Regarding `Cc1ccc2nc(Cl)c(/C=C3\CNC/C(=C\c4cc5cc(C)ccc5nc4Cl)C3=O)cc2c1`, in test [2], the inhibition of growth at 10 µg/mL stood at 38.5%. The inhibition of growth at 30 µg/mL in test [3] came out at 45.9%. Besides, in test [4], the inhibition of growth at 3 µg/mL stood at 35.3%. Besides, in test [1], the MIC50 is greater than 30 µg/mL and the MIC90 was greater than 30 µg/mL.
With `O=C1/C(=C/c2cc3cc(Cl)ccc3nc2Cl)CNC/C1=C\c1cc2cc(Cl)ccc2nc1Cl`, the inhibition of growth at 10 µg/mL in test [2] worked out at 24.6%. Also, the inhibition of growth at 30 µg/mL in test [3] was determined as 77.6%. Besides, the inhibition of growth at 3 µg/mL in test [4] is 37.5%. In test [1], this compound came in with an MIC50 of 19.7 µg/mL (≈ 38.2 µM) and an MIC90 greater than 30 µg/mL.
With `Cc1ccc2cc(/C=C3\CN(C)C/C(=C\c4cc5ccc(C)cc5nc4Cl)C3=O)c(Cl)nc2c1`, the inhibition of growth at 10 µg/mL in test [2] stood at 89.4%. The inhibition of growth at 30 µg/mL in test [3] was 90.4%. The inhibition of growth at 3 µg/mL in test [4] stood at 23.2%. In test [1], this compound registered an MIC50 of 5.8 µg/mL (≈ 11.9 µM) and an MIC90 of 15.4 µg/mL (≈ 31.5 µM).
Regarding `COc1ccc2nc(Cl)c(/C=C3\CNC/C(=C\c4cc5cc(OC)ccc5nc4Cl)C3=O)cc2c1`, the inhibition of growth at 10 µg/mL in test [2] turned out to be 48.4%. Moreover, in test [3], the inhibition of growth at 30 µg/mL stood at 97.2%. In addition, the inhibition of growth at 3 µg/mL in test [4] was 28%. For the same compound, in test [1], the MIC50 turned out to be 11 µg/mL (≈ 21.7 µM) and the MIC90 worked out at 27.2 µg/mL (≈ 53.7 µM).
